{
  "source": "patent US11976038B1",
  "about": "(priority 2023, dated 2024)",
  "key": {"[1]": {"settings": "corn oil, 200 ppm, oxidation induction time at 20° C. calculated from 100-130° C."}, "[2]": {"settings": "corn oil, 200 ppm; for Conjugated diene value / Peroxide value / Acid value: 60° C., after 6 days; for Conjugated diene value: absorbance 232 nm"}, "[3]": {"assay_type": "physicochemical", "protocol": "An appropriate amount of pure product of Embodiment 1 (about 50 mg) was weighed into a small aluminium box, and the weight of the sample was recorded after equilibration. For a thermogravimetric equipment, the temperature was selected to be 0° C. to 500° C., the heating rate to be 20° C./min, and the nitrogen flow rate to be 100 mL/min, and a thermogravimetric change curve was recorded. The initial reaction temperature was 300° C. according to a baseline extrapolation method. […] Curves A and B in FIG. 2 represent the rate of mass change and the mass change with increasing temperature, respectively."}, "[4]": {"settings": "background statement; cited from earlier work"}, "[5]": {"settings": "background statement; cited from earlier work", "remark": "listed apart in the source"}, "[6]": {"settings": "listed as Pure product of Comparative Example 4"}, "[7]": {"settings": "listed as Pure product of Comparative Example 5"}},
  "note": "Where two headings read alike, the source gives them in different places.",
  "data": [
    {"molecule": "resveratrol conjugated linoleate [Comparative Example 4]", "values": [
      {"measurement": "Shelf life", "setting": "[1]; [6]", "value": 71.4, "unit": "days"},
      {"measurement": "Conjugated diene value", "setting": "[2]; [6]", "value": 3.60},
      {"measurement": "Peroxide value", "setting": "[2]; [6]", "value": 27, "unit": "meq/kg"}
    ]},
    {"molecule": "resveratrol nervonic acid ester [Embodiment 1]", "values": [
      {"measurement": "antioxidant activity (DPPH radical scavenging activity)", "setting": "10 mg in 1 mL 80% methanol, 30 min dark, 517 nm", "value": 90.00, "unit": "%"},
      {"measurement": "antioxidant activity relative to resveratrol", "setting": "DPPH, ratio to resveratrol", "value": 1.03, "unit": "times"},
      {"measurement": "Shelf life", "setting": "[1]", "value": 78.2, "unit": "days"},
      {"measurement": "initial reaction temperature (thermal stability temperature)", "setting": "[3]", "value": 300, "unit": "°C"},
      {"measurement": "acid value versus resveratrol and blank control (FIG. 4)", "setting": "[2]; 60° C., 0, 1, 3, 6 days", "value": "basically lower than those of resveratrol and blank control"},
      {"measurement": "conjugated diene value versus resveratrol and blank control (FIG. 5)", "setting": "[2]; 60° C., 0, 1, 3, 6 days", "value": "basically lower than those of resveratrol and blank control"},
      {"measurement": "peroxide value versus resveratrol and blank control (FIG. 3)", "setting": "[2]; 60° C., 0, 1, 3, 6 days", "value": "basically lower than those of resveratrol and blank control"},
      {"measurement": "Acid value", "setting": "[2]", "value": 0.55, "unit": "mgKOH/g"},
      {"measurement": "Peroxide value", "setting": "[2]", "value": 26.5, "unit": "meq/kg"},
      {"measurement": "Conjugated diene value", "setting": "[2]", "value": 3.33}
    ]},
    {"molecule": "resveratrol conjugated linoleate [Comparative Example 5]", "values": [
      {"measurement": "Shelf life", "setting": "[1]; [7]", "value": 71.3, "unit": "days"},
      {"measurement": "Acid value", "setting": "[2]", "value": 0.60, "unit": "mgKOH/g"},
      {"measurement": "Conjugated diene value", "setting": "[2]; [7]", "value": 3.65},
      {"measurement": "Peroxide value", "setting": "[2]; [7]", "value": 27.5, "unit": "meq/kg"}
    ]},
    {"molecule": "Oc1ccc(C=Cc2cc(O)cc(O)c2)cc1", "note": "[Resveratrol, 3, 4′, 5-trihydroxystilbene]", "values": [
      {"measurement": "oral bioavailability", "setting": "[4]", "value": "< 1", "unit": "%"},
      {"measurement": "initial reaction temperature (thermal stability temperature)", "setting": "[3]", "value": 290, "unit": "°C"},
      {"measurement": "solubility in oil", "setting": "[5]", "value": 0.98, "unit": "µg/g"}
    ]}
  ]
}
